The text below walks through data of article PMC10741632, “Detection of Dibutyl Phthalate in Surface Water by Fluorescence Polarization Immunoassay” (Biosensors, 2023).

In brackets after ≈: the same amount, converted by molar mass.

This test deals with monoclonal antibody against DBP (MAb-DBP). Nature of the test: competitive fluorescence polarization immunoassay with DBP-AMF tracer ([…] MAb-DBP, […] tracer). Type of test: binding, Mus musculus. For orientation: Polarisation of emitted light reports the rotation of a fluorescent probe.

As for `CCCCOC(=O)c1ccccc1C(=O)OCCCC` [Dibutyl phthalate], the IC50 came to 0.04 ± 0.002 µg/mL (≈ 0.144 µM).

One may read the IC50 as the concentration that gives 50% inhibition. A higher IC50 goes with weaker potency.
